Assay results published in US12268666B2, “Spray-dried dispersions, formulations, and polymorphs of (S)-5-amino-3-(4-((5-fluoro-2-methoxybenzamido)methyl)phenyl)-1-(1,1,1-trifluoropropan-2-yl)-1H-pyrazole-4-carboxamide” (Loxo Oncology, Inc., priority 2018, dated 2025).

Columns and labels:
[1] = Kinetic solubility in FaSSGF, FaSSIF and FeSSIF media; type: physicochemical; details: kinetic from dmso stock
Protocol: The solubility of the compound of Formula I is also tested under conditions that simulate gut fluids (Fasted State Simulated Intestinal Fluid [FaSSIF], Fed State Simulated Intestinal Fluid [FeSSIF], and Fasted State Simulated Gastric Fluid [FaSSGF]) as shown in Table 9.

[2] = target: T1, TXK (Homo sapiens, UniProt P42681); assay: Kinase selectivity, radiolabeled ATP activity assay; type: biochemical
T1 construct: purchased Reaction Biology
T1 sequence (P42681 whole entry): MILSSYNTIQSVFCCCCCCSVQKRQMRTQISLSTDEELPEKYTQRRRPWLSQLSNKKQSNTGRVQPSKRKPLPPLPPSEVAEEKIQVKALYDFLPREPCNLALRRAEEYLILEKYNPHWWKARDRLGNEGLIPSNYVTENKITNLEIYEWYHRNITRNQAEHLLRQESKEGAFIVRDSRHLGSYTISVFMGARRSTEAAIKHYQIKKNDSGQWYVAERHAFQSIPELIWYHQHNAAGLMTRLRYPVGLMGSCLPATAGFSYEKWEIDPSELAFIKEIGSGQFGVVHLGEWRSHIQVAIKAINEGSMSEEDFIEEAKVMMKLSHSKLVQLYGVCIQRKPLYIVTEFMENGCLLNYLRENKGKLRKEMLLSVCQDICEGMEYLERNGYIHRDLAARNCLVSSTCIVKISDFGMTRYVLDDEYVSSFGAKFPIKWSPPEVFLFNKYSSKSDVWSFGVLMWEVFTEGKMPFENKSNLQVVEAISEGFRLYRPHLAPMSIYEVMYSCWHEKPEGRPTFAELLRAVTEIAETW
Protocol: (§1) Each assay is performed at an ATP concentration close to the Km for each enzyme. […] BRK, CSK, ERBB4, FYN, MEK1, MEK2, TXK, and YES1 The inhibitory activity of the compound of Formula I on the enzymatic activity of these kinases and TEC is determined using a radiolabeled ATP activity assay conducted with an ATP concentration near the ATP Km for each enzyme. After co-incubation with a serial dilution of the compound of Formula I, the quantity of ^33P incorporated into a peptide substrate is measured and the data analyzed using standard curve fitting methods.

[3] = target: T2, BRK (Homo sapiens, UniProt Q13882); assay: as above; type: biochemical
T2 construct: purchased Reaction Biology
T2 sequence (Q13882 whole entry): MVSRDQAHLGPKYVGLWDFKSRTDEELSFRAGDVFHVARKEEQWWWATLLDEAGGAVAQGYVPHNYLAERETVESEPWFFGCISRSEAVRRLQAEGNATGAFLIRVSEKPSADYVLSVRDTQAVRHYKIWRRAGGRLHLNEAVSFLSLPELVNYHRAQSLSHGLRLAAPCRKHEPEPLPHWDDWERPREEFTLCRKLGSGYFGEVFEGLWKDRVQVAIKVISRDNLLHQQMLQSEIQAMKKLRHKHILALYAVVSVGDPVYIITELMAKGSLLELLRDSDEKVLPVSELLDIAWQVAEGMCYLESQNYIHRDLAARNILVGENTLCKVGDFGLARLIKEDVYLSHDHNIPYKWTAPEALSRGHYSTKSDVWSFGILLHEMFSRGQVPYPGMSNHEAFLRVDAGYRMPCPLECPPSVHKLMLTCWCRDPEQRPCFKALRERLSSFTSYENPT
Protocol: as §1

[4] = target: TEC (Homo sapiens, UniProt P42680); assay: as above; type: biochemical; details: ATP near Km
Protocol: as §1

[5] = target: T3, FYN (Homo sapiens, UniProt P06241); assay: as above; type: biochemical
T3 construct: purchased Reaction Biology
T3 sequence (P06241 whole entry): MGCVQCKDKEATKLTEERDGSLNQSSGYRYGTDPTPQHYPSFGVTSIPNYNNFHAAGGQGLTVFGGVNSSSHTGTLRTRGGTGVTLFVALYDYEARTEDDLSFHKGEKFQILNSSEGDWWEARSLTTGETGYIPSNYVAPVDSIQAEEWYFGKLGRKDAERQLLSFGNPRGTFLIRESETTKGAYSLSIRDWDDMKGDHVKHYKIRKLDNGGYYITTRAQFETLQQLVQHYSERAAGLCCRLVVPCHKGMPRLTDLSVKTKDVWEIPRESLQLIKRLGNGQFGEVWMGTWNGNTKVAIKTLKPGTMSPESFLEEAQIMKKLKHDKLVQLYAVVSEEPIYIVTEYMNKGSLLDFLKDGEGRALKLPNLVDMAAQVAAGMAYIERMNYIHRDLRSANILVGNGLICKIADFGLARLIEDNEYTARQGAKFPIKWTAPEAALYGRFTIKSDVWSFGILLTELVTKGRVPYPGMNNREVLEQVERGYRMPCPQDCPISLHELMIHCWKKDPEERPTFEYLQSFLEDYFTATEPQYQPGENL
Protocol: as §1

[6] = target: T4, YES1 (Homo sapiens, UniProt P07947); assay: as above; type: biochemical
T4 construct: purchased Reaction Biology
T4 sequence (P07947 whole entry): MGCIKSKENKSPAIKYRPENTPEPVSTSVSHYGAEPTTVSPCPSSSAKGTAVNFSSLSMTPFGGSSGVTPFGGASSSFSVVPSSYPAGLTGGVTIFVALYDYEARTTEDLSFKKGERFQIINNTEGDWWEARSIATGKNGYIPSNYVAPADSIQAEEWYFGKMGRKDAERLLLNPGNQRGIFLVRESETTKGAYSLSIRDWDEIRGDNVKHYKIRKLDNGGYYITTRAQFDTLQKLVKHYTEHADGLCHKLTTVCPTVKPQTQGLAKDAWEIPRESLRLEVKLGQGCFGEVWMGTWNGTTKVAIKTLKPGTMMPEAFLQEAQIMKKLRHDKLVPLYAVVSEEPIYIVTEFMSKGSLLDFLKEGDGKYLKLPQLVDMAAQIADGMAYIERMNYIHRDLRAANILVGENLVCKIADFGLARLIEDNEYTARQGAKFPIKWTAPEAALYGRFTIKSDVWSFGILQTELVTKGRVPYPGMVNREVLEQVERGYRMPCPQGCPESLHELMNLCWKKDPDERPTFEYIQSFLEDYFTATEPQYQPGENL
Protocol: as §1

[7] = target: T5, MEK1 (Homo sapiens, UniProt Q02750); assay: as above; type: biochemical
T5 construct: purchased Reaction Biology
T5 sequence (Q02750 whole entry): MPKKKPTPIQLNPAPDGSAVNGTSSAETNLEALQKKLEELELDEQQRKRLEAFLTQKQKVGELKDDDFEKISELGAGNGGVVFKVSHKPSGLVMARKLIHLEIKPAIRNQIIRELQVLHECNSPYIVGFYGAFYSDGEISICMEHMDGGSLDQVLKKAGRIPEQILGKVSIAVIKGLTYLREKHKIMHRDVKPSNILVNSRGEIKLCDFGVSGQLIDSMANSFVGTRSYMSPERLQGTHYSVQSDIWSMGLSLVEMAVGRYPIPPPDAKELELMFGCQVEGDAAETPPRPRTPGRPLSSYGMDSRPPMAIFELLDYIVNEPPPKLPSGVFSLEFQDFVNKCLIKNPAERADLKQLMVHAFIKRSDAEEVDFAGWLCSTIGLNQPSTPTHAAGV
Protocol: as §1

[8] = target: T6, MEK2 (Homo sapiens, UniProt P36507); assay: as above; type: biochemical
T6 construct: purchased Reaction Biology
T6 sequence (P36507 whole entry): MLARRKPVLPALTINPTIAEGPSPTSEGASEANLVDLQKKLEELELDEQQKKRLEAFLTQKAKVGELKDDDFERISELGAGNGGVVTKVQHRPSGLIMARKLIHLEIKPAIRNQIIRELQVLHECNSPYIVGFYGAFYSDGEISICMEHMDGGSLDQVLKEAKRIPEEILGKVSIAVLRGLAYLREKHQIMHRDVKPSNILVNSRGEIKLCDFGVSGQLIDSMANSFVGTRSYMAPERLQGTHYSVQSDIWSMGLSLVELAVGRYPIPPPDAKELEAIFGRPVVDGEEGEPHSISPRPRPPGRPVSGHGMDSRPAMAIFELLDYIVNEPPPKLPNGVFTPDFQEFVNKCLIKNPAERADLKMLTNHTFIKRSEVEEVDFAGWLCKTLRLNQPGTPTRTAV
Protocol: as §1

[9] = target: T7, ERBB4 (Homo sapiens, UniProt Q15303); assay: as above; type: biochemical
T7 construct: purchased Reaction Biology
T7 sequence (Q15303 26-1308): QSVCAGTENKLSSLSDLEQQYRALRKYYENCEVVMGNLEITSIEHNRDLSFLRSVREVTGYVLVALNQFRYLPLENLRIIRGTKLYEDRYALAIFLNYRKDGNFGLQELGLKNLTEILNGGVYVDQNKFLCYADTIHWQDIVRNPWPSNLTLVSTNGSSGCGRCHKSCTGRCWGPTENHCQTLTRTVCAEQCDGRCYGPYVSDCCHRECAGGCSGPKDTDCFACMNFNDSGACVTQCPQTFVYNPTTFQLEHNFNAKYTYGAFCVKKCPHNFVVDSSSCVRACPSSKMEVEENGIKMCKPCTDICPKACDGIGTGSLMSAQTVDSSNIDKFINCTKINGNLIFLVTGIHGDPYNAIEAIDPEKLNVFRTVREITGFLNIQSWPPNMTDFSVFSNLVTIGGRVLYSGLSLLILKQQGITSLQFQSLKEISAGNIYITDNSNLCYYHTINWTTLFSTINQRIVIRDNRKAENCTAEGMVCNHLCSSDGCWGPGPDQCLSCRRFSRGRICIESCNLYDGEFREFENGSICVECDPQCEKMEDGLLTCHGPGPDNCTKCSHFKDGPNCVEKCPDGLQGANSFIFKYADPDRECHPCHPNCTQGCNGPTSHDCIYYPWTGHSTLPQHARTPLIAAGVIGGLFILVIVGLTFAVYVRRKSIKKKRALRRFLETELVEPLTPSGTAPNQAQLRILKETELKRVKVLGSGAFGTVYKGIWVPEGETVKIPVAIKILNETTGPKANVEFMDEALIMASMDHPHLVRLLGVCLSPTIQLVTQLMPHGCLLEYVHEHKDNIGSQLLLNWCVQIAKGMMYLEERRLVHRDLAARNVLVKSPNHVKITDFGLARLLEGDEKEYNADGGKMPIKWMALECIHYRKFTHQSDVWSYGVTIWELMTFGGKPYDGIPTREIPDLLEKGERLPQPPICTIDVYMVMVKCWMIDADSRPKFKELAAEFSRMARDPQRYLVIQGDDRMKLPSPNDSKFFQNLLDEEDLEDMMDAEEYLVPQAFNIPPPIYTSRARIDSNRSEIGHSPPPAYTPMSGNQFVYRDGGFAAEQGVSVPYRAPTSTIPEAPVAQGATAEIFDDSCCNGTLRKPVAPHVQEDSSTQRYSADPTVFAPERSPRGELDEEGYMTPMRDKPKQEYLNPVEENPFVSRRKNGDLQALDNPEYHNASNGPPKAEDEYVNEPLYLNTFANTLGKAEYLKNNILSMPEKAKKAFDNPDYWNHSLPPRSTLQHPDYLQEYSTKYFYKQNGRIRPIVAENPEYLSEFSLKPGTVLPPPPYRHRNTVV
Protocol: as §1

[10] = target: T8, CSK (Homo sapiens, UniProt P41240); assay: as above; type: biochemical
T8 construct: purchased Reaction Biology
T8 sequence (P41240 whole entry): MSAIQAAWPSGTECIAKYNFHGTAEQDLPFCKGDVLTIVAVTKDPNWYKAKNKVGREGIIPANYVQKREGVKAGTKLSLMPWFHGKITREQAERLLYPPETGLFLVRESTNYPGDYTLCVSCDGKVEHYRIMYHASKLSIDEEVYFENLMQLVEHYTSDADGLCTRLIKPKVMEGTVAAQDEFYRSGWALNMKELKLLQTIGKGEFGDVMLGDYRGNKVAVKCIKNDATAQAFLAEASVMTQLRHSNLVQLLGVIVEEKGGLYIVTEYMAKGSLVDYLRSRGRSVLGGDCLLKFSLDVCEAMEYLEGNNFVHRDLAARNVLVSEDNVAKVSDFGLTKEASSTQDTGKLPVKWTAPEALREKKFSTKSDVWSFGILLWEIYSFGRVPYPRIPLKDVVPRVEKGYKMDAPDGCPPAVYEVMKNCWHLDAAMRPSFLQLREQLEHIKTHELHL
Protocol: as §1

[11] = test system: PLCγ2; assay: PLCγ2 Y1217 phosphorylation in Ramos RA1 cells; type: cell-based; details: anti-human IgM stimulation
Protocol: Ramos RA1 cells, obtained from ATCC (CRL-1596), are grown in RPMI 1640+10% fetal bovine serum (FBS) at 37° C. in a CO2 incubator. […] Nine hundred μL of cell/well are added to 24 well plates and 100 uL of 10× stocks of inhibitor are added. The 10× compound of Formula I stocks are prepared in 1% DMSO, by doing a 1:3 dilution series with final concentrations in the wells ranging between 900 nM to 0.41 nM. […] All samples are tested in triplicate. After 2 hours (starvation and dosing) sodium orthovanadate is added to a final concentration of 200 μM and incubated for 30 more min. Cells are then stimulated with 4 uL of goat F(ab′)2 anti-human IgM (Jackson ImmunoResearch #109-006-129) for 5 min at room temperature, spun down, resuspended in 100 uL of […]™ M (Sigma #C2978) containing 5× Halt phosphatase and protease inhibitor cocktails (Pierce #78442), and stored at −80° C. Lysates are quantified by BCA (Pierce #23225) and analyzed by Simple Western (Protein Simple) with the following antibodies: anti-phospho-BTK (Y223) (Cell Signaling Technologies (CST) #5082), anti-BTK (CST #8547), anti-phospho-PLCγ2 (Y1217) (CST 3871), anti-PLCγ2 (CST 3872), and anti-GAPDH (GAPDH refers to glyceraldehyde 3-phosphate dehydrogenase) (Novus #MAB5718-SP). […] Results are analyzed with Compass software (Protein Simple), and IC50 values are calculated on GraphPad Prism 7.04 software.

[12] = target: T9, BTK wild type (Homo sapiens, UniProt Q06187); assay: Y223 autophosphorylation in HEK293 cells stably expressing BTK; type: cell-based; details: 2 hr treatment, signal normalized to total BTK
T9 construct: expressed in transfected cells; host or cells: HEK293
Protocol: HEK293 cell lines stably expressing BTK wild type and the mutant form C481S are generated using standard transfection methods. For assessment of cellular inhibition potency, cells are grown in DMEM +10% Fetal Bovine Serum (FBS)+1 μg/ml puromycin (complete growth media) at 37° C. in a CO2 incubator. Cells are harvested according to standard protocols using TRYPLE™ (Gibco #12604-013), counted, resuspended in complete growth media, and added to 6 well assay plates at 4×10 ^5 cell/well in 2 mL. Plates are incubated overnight at 37° C. with 5% CO2. […] All samples are tested in triplicate. Following compound incubation, the growth medium is discarded, cells are washed with DPBS (1×) (Gibco #14190-144) and lysed in 1 mL of […]™ M (Sigma #C2978) containing 1× Halt phosphatase and protease inhibitor cocktails (Pierce #78442). Plates are placed on ice for 1 hr with gentle agitation and stored at −80° C. overnight. The next day, cell lysates are placed in 1.5 mL tubes and cleared by centrifugation at 16,000×g for 10 min at 4° C. Supernatants are quantified by BCA (Pierce #23225) and stored at −80° C. Samples are analyzed by Simple Western (Protein Simple) with anti-phospho-BTK (Y223) (Cell Signaling Technologies (CST) #5082) and anti-BTK (CST #8547) (FIGS. 10A and 10B). β-actin is used as a loading control and detected by regular Western blot with an anti-3-actin antibody (CST #4970).

[13] = FaSSGF (Fasted State Simulated Gastric Fluid), fassgf or other biorelevant, pH 1.6 FaSSGF
[14] = FaSSIF (Fasted State Simulated Intestinal Fluid), pH 6.5 FaSSIF
[15] = FeSSIF (Fed State Simulated Intestinal Fluid), pH 6.5 FeSSIF
[16] = 1.0 μM compound, ATP close to Km, read-out: Percent of Control (POC)

## COc1ccc(F)cc1C(=O)NCc1ccc(-c2nn([C@@H](C)C(F)(F)F)c(N)c2C(N)=O)cc1 [compound of Formula I, (S)-5-amino-3-(4-((5-fluoro-2-methoxybenzamido)methyl)phenyl)-1-(1,1,1-trifluoropropan-2-yl)-1H-pyrazole-4-carboxamide]
[1]; [13]
  solubility kinetic at 4 h: 22 µg/mL
  solubility kinetic at 24 h: 24 µg/mL
[1]; [14]
  solubility kinetic at 4 h: 23 µg/mL
  solubility kinetic at 24 h: 20 µg/mL
[1]; [15]
  solubility kinetic at 4 h: 44 µg/mL
  solubility kinetic at 24 h: 47 µg/mL
[2]; [16]
  remaining activity at 1 µM: < 50%
[2]; ATP near Km
  IC50: 209 nM
[3]; [16]
  remaining activity at 1 µM: < 50%
[3]; ATP near Km
  IC50: 54.2 nM
[4]
  IC50: 1230 nM
[5]; [16]
  remaining activity at 1 µM: < 50%
[5]; ATP near Km
  IC50: 1710 nM
[6]; [16]
  remaining activity at 1 µM: < 50%
[6]; ATP near Km
  IC50: 157 nM
[7]; [16]
  remaining activity at 1 µM: < 50%
[7]; ATP near Km
  IC50: 147 nM
[8]; [16]
  remaining activity at 1 µM: < 50%
[8]; ATP near Km
  IC50: 82.7 nM
[9]; [16]
  remaining activity at 1 µM: < 50%
[9]; ATP near Km
  IC50: 13.2 nM
[10]; [16]
  remaining activity at 1 µM: < 50%
[10]; ATP near Km
  IC50: 552 nM
[11]
  IC50: 8.2 nM
[12]
  IC50: 8.6 ± 0.3 nM
